Earlier results on one compound are cited in patent US20100035992A1, “Methods and Compositions for Treating Inflammation and Inflammation-Related Pathologies” (priority 2008, published 2010).

The structures appear in SMILES notation.

For the series the following is noted: at 79° F.

Turning to `CS(C)(=O)=O` [MSM, methylsulfonylmethane], the water solubility is on record as 34 % w/v.
